For orientation: IC50 means the concentration needed to halve the response being measured.

T1 sequence (Q02750 whole entry S218D/S222D): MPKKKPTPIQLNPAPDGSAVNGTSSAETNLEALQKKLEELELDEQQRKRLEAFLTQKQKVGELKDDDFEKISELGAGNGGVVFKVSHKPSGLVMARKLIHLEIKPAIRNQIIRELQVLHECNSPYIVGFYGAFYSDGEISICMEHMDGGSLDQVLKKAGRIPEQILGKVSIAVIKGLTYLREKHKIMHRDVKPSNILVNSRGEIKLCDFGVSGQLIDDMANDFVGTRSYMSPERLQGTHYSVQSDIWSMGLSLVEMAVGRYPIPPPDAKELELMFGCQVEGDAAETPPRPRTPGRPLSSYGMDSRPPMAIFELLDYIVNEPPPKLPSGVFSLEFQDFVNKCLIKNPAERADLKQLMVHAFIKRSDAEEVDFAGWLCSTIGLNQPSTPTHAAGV

The experiment addresses T1, MEK1^CA (human GST-MEK1, constitutively active, Ser218Asp and Ser222Asp) (Homo sapiens, UniProt Q02750, S218D/S222D).
T1 construct: GST; made in house; host or cells: Escherichia coli
Put plainly: MEK1 enzymatic activity assay (MEK1^CA / ERK2 / MBP, [γ-33P]ATP incorporation). Format: biochemical. The settings on record: Table 1, compounds of formula I; read-out: Avg IC50. The text has this:
Materials and preparation of reagents: Human GST-MEK1 and the constitutively active allele GST-MEK1^CA (harboring the mutations Ser218Asp and Ser222Asp) were subcloned into the […] expression vector pGEM4Z (Promega, Madison, Wis.) from the wild type human MEK1 cDNA. GST-MEK1^CA was expressed in Escherichia coli and partially purified using Glutathione Sepharose 4B affinity resin (Amersham Pharmacia Biotech, Piscataway, N.J.). The ERK2 allele was subcloned from MAPK2/Erk2 cDNA (wild type) in pUSEamp (Upstate Biotechnology, Inc., Waltham, Mass.) into the vector pET21a (Novagen, Madison, Wis.) resulting in an N-terminal histidine-tagged mouse ERK2 allele. […] Myelin basic protein (MBP) was purchased from Gibco BRL (Rockville, Md.). EasyTides adenosine 5′-triphosphate (ATP) ([γ-^33P]) (NEN Perkin Elmer, Wellesley, Mass.) was the source of radiolabel for all kinase reactions. Activated Raf-1 (truncated) and activated MAPKinase 2/ERK2 were purchased from Upstate, Inc. (Lake Placid, N.Y.). 4-20% Criterion Precast gels were purchased from Bio-Rad (Hercules, Calif.).
A typical 25-microliter assay contained 0.002 nanomoles MEK1^CA, 0.02 nanomoles ERK2, 0.25 nanomoles MBP, 0.25 nanomoles unlabeled ATP, and 0.1 μCi [γ^33P] ATP. The screening assay essentially comprised four additions. Five μl of diluted compound were dispensed to 96-well assay plates. Ten μl of 2.5× enzyme cocktail (MEK1^CA and ERK2 only) were then added to each well followed by a pre-incubation for 30 minutes at ambient temperature. […] Finally, 100 μl of 10% trichloroacetic acid (TCA) were added and incubated for 30 minutes at room temperature to halt the reaction and precipitate radiolabeled protein products. Reaction products were harvested on glass fiber 96 well filter plates prewetted with water and 1% pyrophosphate. The filter plate was then washed 5 times with water. Water was displaced by absolute ethanol and the plate was allowed to air dry for 30 minutes at room temperature. A back seal was applied manually and 40 μl of scintillation cocktail were dispensed to each well. A top seal was applied and the plate was counted in the TopCount for two seconds per well.
With `CC(CCc1ccccc1)NC(=N)c1c(O)nsc1Nc1ccc(Oc2ccccc2)cc1` (stereo not shown) [compound 50], the half-maximal inhibitory concentration (IC50) lay within 1 to 100 nM.

Consider `CC(C)OCCCNC(=N)c1c(O)nsc1Nc1ccc(Oc2ccccc2)cc1` [compound 51], for which the IC50 was 1 to 100 nM.

In the case of `CCC(C)CNC(=N)c1c(O)nsc1Nc1ccc(Oc2ccccc2)cc1` (stereo not shown) [compound 52], the concentration for half-maximal inhibition (IC50) was in the range of 1 to 100 nM.

On to `N=C(NCCN1CCCCC1)c1c(O)nsc1Nc1ccc(Oc2ccccc2)cc1` [compound 53], for which the IC50 fell in the range of 100 to 500 nM.

Regarding `N=C(NCCN1CCOCC1)c1c(Nc2ccc(Oc3ccccc3)cc2)s[nH]c1=O` [compound 54], the concentration for half-maximal inhibition (IC50) fell in the range of 100 to 500 nM.

Consider `N=C(NCC(O)CO)c1c(O)nsc1Nc1ccc(Br)cc1` (stereo not shown) [compound 55], for which the IC50 lay within 100 to 500 nM.

Take `Cc1ccc(Nc2sncc2C(=N)NC2CCCC2)cc1` [compound 56]: the half-maximal inhibitory concentration (IC50) is more than 500 nM.

As for `N=C(NCC1CCCCC1)c1c(O)nsc1Nc1ccc(CO)cc1` [compound 57], the IC50 is more than 500 nM.

As for `CCCC1CCC(c2ccc(Nc3snc(O)c3C(=N)NCC3CCCCC3)cc2)CC1` (stereo not shown) [compound 58], the IC50 is more than 500 nM.

With `COc1ccc(Nc2snc(O)c2C(=N)NCC2CCCCC2)cc1` [compound 60], the IC50 was more than 500 nM.

For the compound `N=C(NCC1CCCCC1)c1c(O)nsc1Nc1ccc(OCc2ccccc2)cc1` [compound 61], the half-maximal inhibitory concentration (IC50) lay in the range of 100 to 500 nM.

Consider `COc1ccc(-c2ccccc2)cc1Nc1snc(O)c1C(=N)NCC1CCCCC1` [compound 62], for which the concentration for half-maximal inhibition (IC50) is more than 500 nM.

As for `CCC[C@H]1CC[C@H](c2ccc(Nc3s[nH]c(=O)c3C(N)=NCC(O)CO)cc2)CC1` (stereo partly shown) [compound 63], the IC50 was in the range of 100 to 500 nM.

Regarding `N=C(NCC(O)CO)c1c(O)nsc1Nc1ccc(CO)cc1` (stereo not shown) [compound 64], the IC50 was more than 500 nM.

As to `N=C(NCC1CCCCC1)c1c(O)nsc1Nc1cc(C(F)(F)F)cc(C(F)(F)F)c1` [compound 66], the IC50 is more than 500 nM.

Regarding `N=C(NCC(O)CO)c1c(O)nsc1Nc1cc(C(F)(F)F)cc(C(F)(F)F)c1` (stereo not shown) [compound 67], the IC50 was more than 500 nM.

Consider `N=C(NCc1cccc2ccccc12)c1c(O)nsc1Nc1cc(C(F)(F)F)cc(C(F)(F)F)c1` [compound 68], for which the 50% inhibitory concentration (IC50) is more than 500 nM.

For the compound `N=C(NCC(O)CO)c1c(O)nsc1Nc1ccccc1F` (stereo not shown) [compound 69], the IC50 is more than 500 nM.

For `CC(C)c1ccc(Nc2snc(O)c2C(N)=NCC(O)CO)cc1` (stereo not shown) [compound 70], the 50% inhibitory concentration (IC50) lay in the range of 100 to 500 nM.

As for `N#Cc1cccc(Nc2snc(O)c2C(N)=NCC2CCCCC2)c1` [compound 71], the half-maximal inhibitory concentration (IC50) was more than 500 nM.

With `N=C(NCC(O)CO)c1c(O)nsc1Nc1cccc(Br)c1` (stereo not shown) [compound 73], the concentration for half-maximal inhibition (IC50) was in the range of 100 to 500 nM.

Turning to `N=C(NCC(O)CO)c1c(O)nsc1Nc1cccc(Cl)c1` (stereo not shown) [compound 75], the IC50 lay in the range of 100 to 500 nM.

Turning to `COc1ccc(Nc2snc(O)c2C(=N)NCC2CCCCC2)cn1` [compound 77], the IC50 was in the range of 1 to 100 nM.

Take `N=C(NCC(O)O)c1c(O)nsc1Nc1ccc([N+](=O)[O-])cc1` [compound 78]: the IC50 is more than 500 nM.

For the compound `CC(C)c1ccc(Nc2snc(O)c2C(N)=NCC2CCCCC2)cc1` [compound 80], the IC50 was more than 500 nM.

Consider `Cc1cccc(Nc2snc(O)c2C(=N)NCC2CCCCC2)c1` [compound 81], for which the IC50 is more than 500 nM.

Consider `N=C(NCC1CCCCC1)c1c(O)nsc1Nc1cccc([N+](=O)[O-])c1` [compound 82], for which the IC50 lay within 100 to 500 nM.

With `N=C(NCC1CCCCC1)c1c(O)nsc1Nc1cccc(Oc2ccccc2)c1` [compound 83], the IC50 was 100 to 500 nM.

For `N=C(NCC1CCCCC1)c1c(O)nsc1Nc1ccc(Sc2ccc([N+](=O)[O-])cc2)cc1` [compound 84], the IC50 was in the range of 100 to 500 nM.

For the compound `N=C(NCc1cccc2ccccc12)c1c(O)nsc1Nc1ccccc1` [compound 87], the concentration for half-maximal inhibition (IC50) is more than 500 nM.

Take `N/C(=N\CC1CCCCC1)c1c(O)nsc1Nc1ccccc1C(=O)NCC1CCCCC1` [compound 88]: the 50% inhibitory concentration (IC50) was more than 500 nM.

With `N=C(NCC1CCCCC1)c1c(O)nsc1Nc1ccc([N+](=O)[O-])cc1O` [compound 89], the IC50 was more than 500 nM.

With `N=C(NCC1CCCCC1)c1c(O)nsc1NC1CCCCC1` [compound 90], the IC50 is more than 500 nM.

For `N=C(NCC1CCCCC1)c1c(O)nsc1NC12CC3CC(CC(C3)C1)C2` [compound 92], the IC50 was more than 500 nM.

For the compound `N=C(NCC1CCCCC1)c1c(O)nsc1Nc1ccccc1` [compound 93], the 50% inhibitory concentration (IC50) is more than 500 nM.

Take `CCCCc1ccc(Nc2snc(O)c2C(=N)NCC2CCCCC2)cc1` [compound 94]: the half-maximal inhibitory concentration (IC50) is 100 to 500 nM.

Take `N=C(NCC1CCCCC1)c1c(O)nsc1Nc1ccc(OC(F)F)cc1` [compound 95]: the IC50 was more than 500 nM.

For `N=C(NCC1CCCCC1)c1c(O)nsc1Nc1cccc(Cl)c1Cl` [compound 96], the half-maximal inhibitory concentration (IC50) is more than 500 nM.

For the compound `N=C(NCC1CCCCC1)c1c(O)nsc1Nc1ccc(C(F)(F)F)cc1Cl` [compound 98], the IC50 is more than 500 nM.

On to `COC(=O)c1ccccc1Nc1snc(O)c1C(N)=NCC1CCCCC1` [compound 99], for which the IC50 was more than 500 nM.

Take `N=C(NCC1CCCCC1)c1c(O)nsc1Nc1ccc(Sc2ccccc2)cc1` [compound 100]: the half-maximal inhibitory concentration (IC50) fell in the range of 1 to 100 nM.

For `N=C(NCC(O)CO)c1c(O)nsc1Nc1ccc(Cl)cc1` (stereo not shown) [compound 101], the concentration for half-maximal inhibition (IC50) lay in the range of 100 to 500 nM.

In the case of `N=C(NCC1CCCCC1)c1c(O)nsc1Nc1ccc(Oc2ccccc2)nc1` [compound 103], the IC50 lay in the range of 100 to 500 nM.

Regarding `N=C(NCC1CCCCC1)c1c(O)nsc1Nc1ccc(C(=O)c2ccccc2)cc1` [compound 104], the IC50 lay within 100 to 500 nM.

As for `N=C(NCc1cccc2ccccc12)c1c(O)nsc1Nc1cccc(Cl)c1Cl` [compound 105], the IC50 was more than 500 nM.

For `Cc1ccc2cc(Nc3snc(O)c3C(=N)NCC3CCCCC3)ccc2n1` [compound 106], the concentration for half-maximal inhibition (IC50) is more than 500 nM.

With `Cc1cc(Nc2snc(O)c2C(=N)NCC2CCCCC2)c2ccccc2n1` [compound 107], the half-inhibitory concentration (IC50) was more than 500 nM.

Consider `N=C(NCC1CCCCC1)c1c(O)nsc1NCc1ccc(C(F)(F)F)cc1` [compound 108], for which the IC50 is more than 500 nM.

With `Cc1ccc(Oc2ccc(Nc3snc(O)c3C(=N)NCC3CCCCC3)cc2)cc1` [compound 109], the concentration for half-maximal inhibition (IC50) was 1 to 100 nM.

With `N=C(N)c1c(O)nsc1Nc1ccc(Oc2ccccc2)cc1` [compound 110], the IC50 lay within 100 to 500 nM.

In the case of `N=C(NCC1CCCCC1)c1c(O)nsc1Nc1ccc2c(c1)Cc1ccccc1-2` [compound 111], the IC50 was more than 500 nM.

For the compound `COCCCNc1snc(O)c1C(=N)NCCOc1ccccc1` [compound 112], the half-maximal inhibitory concentration (IC50) was more than 500 nM.

In the case of `N=C(NCCOc1ccccc1)c1c(O)nsc1NCC1CCCO1` (stereo not shown) [compound 113], the IC50 is more than 500 nM.

Take `N=C(NCCc1ccc(O)cc1)c1c(O)nsc1NCCc1ccc(O)cc1` [compound 114]: the half-maximal inhibitory concentration (IC50) was more than 500 nM.

As to `COc1ccc(CNC(=N)c2c(O)nsc2NCc2ccc(OC)cc2)cc1` [compound 115], the IC50 is more than 500 nM.

Turning to `N=C(NCC1CCCCC1)c1c(O)nsc1NC1CCc2ccccc21` (stereo not shown) [compound 116], the IC50 was more than 500 nM.

With `CC(C)Nc1snc(O)c1C(=N)NCC1CCCCC1` [compound 117], the IC50 is more than 500 nM.

Consider `CC(Nc1snc(O)c1C(=N)NCC1CCCCC1)c1ccccc1` (stereo not shown) [compound 118], for which the IC50 was more than 500 nM.

Regarding `N=C(NCC1CCCCC1)c1c(O)nsc1NCC1CC1` [compound 119], the IC50 was more than 500 nM.

Turning to `N=C(NCC1CCCCC1)c1c(O)nsc1NCCc1ccccc1` [compound 120], the 50% inhibitory concentration (IC50) is more than 500 nM.

Turning to `CCCCCNc1snc(O)c1C(=N)NCC1CCCCC1` [compound 121], the concentration for half-maximal inhibition (IC50) is more than 500 nM.

Consider `N=C(NCC1CCCCC1)c1c(O)nsc1Nc1ccc(N2CCCCC2)cc1` [compound 123], for which the 50% inhibitory concentration (IC50) was more than 500 nM.

Take `Cc1ccc(Oc2ccc(Nc3snc(O)c3C(=N)NCC3CCCCC3)cc2)cn1` [compound 124]: the concentration for half-maximal inhibition (IC50) was 100 to 500 nM.

Regarding `N=C(NCCCO)c1c(O)nsc1NCC1CCCCC1` [compound 125], the IC50 is more than 500 nM.

Turning to `N=C(NCC1CCCCC1)c1c(O)nsc1Nc1ccc(Cl)nc1` [compound 126], the IC50 was more than 500 nM.

Turning to `N=C(NCC1CCCCC1)c1c(O)nsc1Nc1ccc(Cc2ccccc2)cc1` [compound 127], the IC50 is 100 to 500 nM.

Consider `N=C(NCC1CCCCC1)c1c(O)nsc1Nc1ccc(/N=N/c2ccccc2)cc1` [compound 128], for which the 50% inhibitory concentration (IC50) fell in the range of 100 to 500 nM.

For the compound `N=C(NCC(O)CO)c1c(O)nsc1Nc1ccc(Cc2ccccc2)cc1` (stereo not shown) [compound 129], the concentration for half-maximal inhibition (IC50) lay in the range of 100 to 500 nM.

On to `N=C(NO)c1c(O)nsc1Nc1ccc(Oc2ccccc2)cc1` [compound 130], for which the IC50 lay within 1 to 100 nM.

In the case of `COc1cc2c(cc1Nc1snc(O)c1C(=N)NCC1CCCCC1)oc1ccccc12` [compound 131], the IC50 was more than 500 nM.

The values are drawn from patent publication US7652047B2, “Phenylamino isothiazole carboxamidines as MEK inhibitors” (Ardea Biosciences, Inc., priority 2005, dated 2010).
